# Reference: paper PMC3578765 (PLoS Neglected Tropical Diseases, 2013)
# Read-outs that look alike come from different tables or passages of the source.
# Columns and labels:
# [1] = test system: Huh-7.5; test: assay validation with reference compounds, percent cell number in DENV2-infected Huh-7.5; conditions: percent cell number normalized against MOCK-infected Huh-7.5, DENV2-infected cells
# Procedure: Acquired images were analyzed using our in-house developed image-mining platform (IM). This platform is designed to do high-content screening and directly access the database of images that were sequentially analyzed with specially designed algorithms developed as a customized plug-in to the IM platform. The results of all the analyses were stored in a centralized database. […] To define the percentage of dengue-infected cells and, conversely the non-infected cells, a modified watershed method was applied. Compared to the original watershed algorithm that uses the morphological gradient image, a weighted gradient image is used for the topographic surface, whose weights are defined as the ridge values computed from the eigen values of the original image. The percentage of non-infected cells, which is also defined as the percent inhibition or percent activity, is derived by using the formula: [1−(A488-positive cells/total cells)]×100%.
# In both validation experiments, Huh-7.5 was mixed with DENV1, DENV2, DENV3 or DENV4 at a M.O.I. of 0.5 or VM only for MOCK-infection and dispensed in designated wells using the Thermo Scientific WellMate automated liquid dispenser. For the first validation experiment, the statistical reliability of the dengue HT/HCA was determined by calculating the Z'-factor for the percent infection or percent inhibition. Briefly, the Z'-factor of a defined parameter is calculated using the formula: 1−[(3σp+3σn)/(|μp−μn|)], where the μp, μn, σp and σn are the means (μ) and standard deviations (σ) of the positive (p) and negative (n) controls. For the second validation experiment, the reference compounds were prepared in 2-fold serial dilutions and dispensed in duplicate wells in the 384-well plate, followed by the Huh-7.5 and DENV mixture (M.O.I. 0.5). Percent infection, percent inhibition, and percent cell number were determined using the customized IM platform plug-in. Scatter-plot distribution was generated using TIBCO Spotfire 4.5.0 (TIBCO Software Inc., Somerville, MA). […] The top and bottom values of the reference compounds were unconstrained when the curve fittings of the 10-pt. DRCs were generated.
# Similarly, the percent cell number was normalized based on the measured cell number in MOCK-infected (100% cell number) controls according to the formula: % cell number = (Cmeasured/μCMOCK-infect)×100%, where Cmeasured is the measured cell number in the test well and μCMOCK-infect is the average cell number in the MOCK-infected controls. The statistical validity of the dengue high-throughput screening was determined by calculating for the Z'-factor using the 0.5% DMSO-treatment and MOCK-infected Huh-7.5 as negative and positive controls, respectively. In addition, other parameters, including DRC of a reference compound, were used to evaluate the assay performance.
# [2] = test system: BR DEN2 01-01 infection of Huh-7.5; test: assay validation with reference compounds, 10-pt DRC of percent infection; format: cell-based, Dengue virus
# Procedure: (§1) An immunofluorescence assay (IFA) used to detect dengue infection was optimized for the dengue HT/HCA. Briefly, cells were fixed with 4% (w/v) paraformaldehyde (PFA) for 20 min at room temperature (Rm T). PFA-fixed cells were treated with 0.25% (v/v) Triton-X for 20 min at Rm T. DENV-infected cells were detected by probing with 4G2 mAb prepared in blocking buffer: DPBS containing 5% FBS for 30 min at 37°C, followed by AlexaFluor-conjugated goat anti-mouse IgG (H+L) (Invitrogen Molecular Probes, USA) prepared in blocking buffer for 30 min at 37°C. Cell nuclei counterstained with 5 µg/mL 4′,6-diamidino-2-phenylindole (DAPI, Sigma-Aldrich, USA). Two washing cycles of DPBS was done after each step of the IFA. After the final washing, digital images were acquired using a high-throughput confocal fluorescence imaging system (Evotec Technologies High-Throughput Cell Analyzer Opera, Perkin Elmer, USA). The digital images were taken from 3 different fields of each well at 20× magnification.
# (§2) Acquired images were analyzed using our in-house developed image-mining platform (IM). This platform is designed to do high-content screening and directly access the database of images that were sequentially analyzed with specially designed algorithms developed as a customized plug-in to the IM platform. The results of all the analyses were stored in a centralized database. […] One channel (DAPI-channel) captures the signal emitted by DAPI-stained nuclei at 450 nm, while the other channel (A488-channel) captures the signal emitted by the AlexaFluor 488 dye bound to the dengue E protein-antibody complexes confined in the cytoplasm of dengue-infected cells at 540 nm. To define the percentage of dengue-infected cells and, conversely the non-infected cells, a modified watershed method was applied. Compared to the original watershed algorithm that uses the morphological gradient image, a weighted gradient image is used for the topographic surface, whose weights are defined as the ridge values computed from the eigen values of the original image. The percentage of non-infected cells, which is also defined as the percent inhibition or percent activity, is derived by using the formula: [1−(A488-positive cells/total cells)]×100%.
# In both validation experiments, Huh-7.5 was mixed with DENV1, DENV2, DENV3 or DENV4 at a M.O.I. of 0.5 or VM only for MOCK-infection and dispensed in designated wells using the Thermo Scientific WellMate automated liquid dispenser. For the first validation experiment, the statistical reliability of the dengue HT/HCA was determined by calculating the Z'-factor for the percent infection or percent inhibition. Briefly, the Z'-factor of a defined parameter is calculated using the formula: 1−[(3σp+3σn)/(|μp−μn|)], where the μp, μn, σp and σn are the means (μ) and standard deviations (σ) of the positive (p) and negative (n) controls. For the second validation experiment, the reference compounds were prepared in 2-fold serial dilutions and dispensed in duplicate wells in the 384-well plate, followed by the Huh-7.5 and DENV mixture (M.O.I. 0.5). Percent infection, percent inhibition, and percent cell number were determined using the customized IM platform plug-in. Scatter-plot distribution was generated using TIBCO Spotfire 4.5.0 (TIBCO Software Inc., Somerville, MA). The ten-point dose-response curves (10-pt DRCs) were plotted using the non-linear regression formula: log (inhibitor) vs. response – variable slope (4 parameters), available in GraphPad Prism 5.04 (GraphPad Software Inc., San Diego, CA). The top and bottom values of the reference compounds were unconstrained when the curve fittings of the 10-pt. DRCs were generated.
# [3] = test system: DENV3 (BR DEN3 290-02) infection in Huh-7.5; test: image-based dengue HT/HCA, 10-pt dose-response hit confirmation, DENV3; format: cell-based; conditions: Dengue virus, read-out: EC50 DENV3
# Procedure: as §1, §2
# (§3) The BioFocus kinase inhibitor library were screened against DENV1, DEN2, DENV3 and DENV4 at 10 µM in 0.5% (v/v) DMSO. MOCK-infected Huh-7.5 and IFN-α2A (500 U/mL) were used as positive controls, and the 0.5% DMSO vehicle was used as negative control. Four sets of 15 384-well plates (13 plates designated for test compounds and 2 plates designated for DMSO vehicle control) were used for the primary screening of the BioFocus kinase inhibitor library against each dengue serotype. Each of the 4,000 compounds in the library was tested in single wells. For data normalization and quality control of the screening, each test compound plate contained 16 replicates of the positive and negative controls. After dispensing the test compounds IFN-α2A and DMSO vehicle in the 384-well plates, Huh-7.5 was mixed with DENV1, DENV2, DENV3, or DENV4 to achieve a M.O.I. of 0.5 and dispensed at 5×10^3 cells/well using the Thermo Scientific WellMate automated liquid dispenser. For the MOCK-infected Huh-7.5, the cells were mixed with VM and dispensed under the same conditions as previously stated. Virus infection in the presence of the compounds proceeded at 37°C, 5% CO2 for 96 hrs. Compound activity based on percent inhibition and cell toxicity was assessed by IFA and IM analysis as described above. Scatter-plot distribution of the entire screening was generated using TIBCO Spotfire 4.5.0 (TIBCO Software Inc., Somerville, MA).
# (§4) The calculated activity was normalized to a percent inhibition (PI) based on the MOCK-infected cells (100% activity, or zero infection) and dengue-infected cells (0% activity, or maximum measured infection percentage) controls according to the formula: [drawing 1] where: PImeasured - percent inhibition of test compound […]
# [4] = test system: DENV1 (Den1 BR/90) infection in Huh-7.5; test: image-based dengue HT/HCA, 10-pt dose-response hit confirmation, DENV1; format: cell-based; conditions: Dengue virus, read-out: EC50 DENV1
# Procedure: as §1, §2, §3, §4
# [5] = test system: DENV2 (BR DEN2 01-01) infection in Huh-7.5; test: image-based dengue HT/HCA, 10-pt dose-response hit confirmation, DENV2; format: cell-based; conditions: Dengue virus, read-out: EC50 DENV2
# Procedure: as §1, §2, §3, §4
# [6] = compound toxicity, resazurin reduction assay in uninfected Huh-7.5; format: cell-based; conditions: human, uninfected Huh-7.5 cells, Huh-7.5 without viral infection, 10-pt DRC
# Procedure: The hits identified from the primary screening were also tested at 10 µM against CHIKV-118-GFP infection in HuH-7 cells and evaluated by resazurin reduction assay (RRA). Resazurin (7-Hydroxy-3H-phenoxazin-3-one 10-oxide) is reduced to the red fluorescent resorufin by redox enzymes produced by viable cells, and is a good indication of metabolic capacity, and by extension cell viability. The amount of converted resorufin was measured as relative fluorescence readout (RFU) at excitation/emission of 531/572 nm using a fluorescence spectrophotometer (Victor^3 V Spectrophotometer, Perkin Elmer, USA). Briefly, cells were inoculated with CHIKV-118-GFP at an M.O.I. of 0.5 and seeded in 384-well plates containing reference and primary hit compounds and incubated under humidified conditions for 72 hrs at 37°C. Resazurin solution was added to a final concentration of 10 µM and further incubated for another 12 hrs prior to measurement of RFU. The percent activity of the compounds, reflected by the percent cell viability, was quantified by normalizing against the RFUs of MOCK-infected cells and CHIKV-118-GFP-infected cells. Compounds resulting in normalized RFU ≥70% were considered as positive hits for anti-CHIKV activity.
# To confirm the compound activity against dengue viruses, the selected hits from the primary screening were tested in a 10-pt. DRC (2-fold serial dilution from 50 µM) using the same assay described for the dengue HT/HCA. Each concentration of the hit compounds was tested in duplicate wells. Data generated from image analysis of the 10-pt. DRC was plotted and analyzed using the non-linear regression formula: log (inhibitor) vs. response – […] (4 parameters) in GraphPad Prism 5.04. […] Compound toxicity was determined by testing the hit compounds in a 10-pt. DRC against Huh-7.5 in the absence of viral infection and measuring the cell viability using resazurin reduction assay as described above. […] Confirmed hits were selected based on their Selectivity Index (SI), a dimensionless value that indicates the magnitude between cytotoxic concentration and effective concentration, and is calculated as: SI = CC50/EC50.
# [7] = test system: DENV4 (DEN4 TVP-360) infection in Huh-7.5; test: image-based dengue HT/HCA, 10-pt dose-response hit confirmation, DENV4; format: cell-based; conditions: Dengue virus, read-out: EC50 DENV4
# Procedure: as §1, §2, §3, §4
# [8] = DENV3, Huh7.5, Huh-7.5, M.O.I. 0.5, 96 hrs
# [9] = DENV1, Huh7.5, Huh-7.5, M.O.I. 0.5, 96 hrs
# [10] = DENV2, Huh7.5, Huh-7.5, M.O.I. 0.5, 96 hrs
# [11] = DENV4, Huh7.5, Huh-7.5, M.O.I. 0.5, 96 hrs
smiles,measurement,setting,value
C=CCNC(=O)c1cc([N+](=O)[O-])cc2c(=O)[nH]c(Nc3ccc(Cl)c(Cl)c3)nc12 [AZ 10417808],CC50,[1],148 µM
same,IC50,"[2]; percent infection normalized against DENV2-infected Huh-7.5, M.O.I. 0.5, read-out: IC50",82.3 µM
NC(Cc1ccc(Cl)cc1)c1csc(Nc2ccc(S(N)(=O)=O)cc2)n1 (stereo not shown) [CND0968],EC50,[3]; [8],6.2 µM
same,EC50,[4]; [9],> 25 µM
same,EC50,[5]; [10],6.4 µM
same,CC50 at 72 h,[6],29 µM
same,EC50,[7]; [11],1.1 µM
CCCc1cnc(Nc2nc(C(N)Cc3ccccc3)cs2)nc1 (stereo not shown) [CND0975],EC50,[3]; [8],> 50 µM
same,EC50,[4]; [9],1 µM
same,EC50,[5]; [10],5.5 µM
same,CC50 at 72 h,[6],44 µM
same,EC50,[7]; [11],> 50 µM
COc1ccc(CC(N)c2csc(Nc3nccc(NCc4ccco4)n3)n2)cc1 (stereo not shown) [CND1020],EC50,"[3]; DENV3, Huh7.5, 96 h",3.4 µM
same,EC50,[4]; [9],3.9 µM
same,EC50,"[5]; DENV2, Huh7.5, 96 h",13 µM
same,CC50 at 72 h,[6],25 µM
same,EC50,"[7]; DENV4, Huh7.5, 96 h",19 µM
NC(Cc1ccccc1)c1csc(Nc2ccccn2)n1 (stereo not shown) [CND1043],EC50,[3]; [8],5.7 µM
same,EC50,"[4]; Huh7.5, 96 h",4.1 µM
same,EC50,[5]; [10],3.1 µM
same,CC50 at 72 h,[6],43 µM
same,EC50,[7]; [11],6.9 µM
COc1cccc(Nc2nc(C(N)CC(C)C)cs2)n1 (stereo not shown) [CND1057],EC50,[3]; [8],2.9 µM
same,EC50,[4]; [9],3.3 µM
same,EC50,[5]; [10],1 µM
same,CC50 at 72 h,[6],23 µM
same,EC50,[7]; [11],10 µM
NC(Cc1ccc(C(F)(F)F)cc1)c1csc(Nc2ncccn2)n1 (stereo not shown) [CND1081],EC50,[3]; [8],3.1 µM
same,EC50,[4]; [9],1.5 µM
same,EC50,[5]; [10],2.1 µM
same,CC50 at 72 h,[6],> 100 µM
same,EC50,[7]; [11],12 µM
NC(Cc1ccc(C(F)(F)F)cc1)c1csc(Nc2nccc(NCCCO)n2)n1 (stereo not shown) [CND1172],EC50,[3]; [8],4.8 µM
same,EC50,[4]; [9],7.3 µM
same,EC50,[5]; [10],10.4 µM
same,CC50 at 72 h,[6],15 µM
same,EC50,[7]; [11],7.5 µM
CS(=O)(=O)c1cnc(Nc2nc(C(N)Cc3ccc(Cl)cc3)cs2)nc1 (stereo not shown) [CND1244],EC50,[3]; [8],1.6 µM
same,EC50,[4]; [9],1.7 µM
same,EC50,[5]; [10],2.9 µM
same,CC50 at 72 h,[6],21 µM
same,EC50,[7]; [11],4.4 µM
CCN(CC)CCCC(C)Nc1ccnc2cc(Cl)ccc12 (stereo not shown) [Chloroquine],IC50,"[2]; Dengue virus, DENV2, Huh7.5",17.4 µM
